How the values were obtained:
[1] = biological target: T1, Protein deacetylase HDAC6 (Homo sapiens, UniProt Q9UBN7); experiment: Inhibition of human recombinant HDAC6 using Boc-Lys(acetyl)-AMC substrate incubated for 2 hrs by fluorescence based assay
T1 sequence (Q9UBN7 whole entry): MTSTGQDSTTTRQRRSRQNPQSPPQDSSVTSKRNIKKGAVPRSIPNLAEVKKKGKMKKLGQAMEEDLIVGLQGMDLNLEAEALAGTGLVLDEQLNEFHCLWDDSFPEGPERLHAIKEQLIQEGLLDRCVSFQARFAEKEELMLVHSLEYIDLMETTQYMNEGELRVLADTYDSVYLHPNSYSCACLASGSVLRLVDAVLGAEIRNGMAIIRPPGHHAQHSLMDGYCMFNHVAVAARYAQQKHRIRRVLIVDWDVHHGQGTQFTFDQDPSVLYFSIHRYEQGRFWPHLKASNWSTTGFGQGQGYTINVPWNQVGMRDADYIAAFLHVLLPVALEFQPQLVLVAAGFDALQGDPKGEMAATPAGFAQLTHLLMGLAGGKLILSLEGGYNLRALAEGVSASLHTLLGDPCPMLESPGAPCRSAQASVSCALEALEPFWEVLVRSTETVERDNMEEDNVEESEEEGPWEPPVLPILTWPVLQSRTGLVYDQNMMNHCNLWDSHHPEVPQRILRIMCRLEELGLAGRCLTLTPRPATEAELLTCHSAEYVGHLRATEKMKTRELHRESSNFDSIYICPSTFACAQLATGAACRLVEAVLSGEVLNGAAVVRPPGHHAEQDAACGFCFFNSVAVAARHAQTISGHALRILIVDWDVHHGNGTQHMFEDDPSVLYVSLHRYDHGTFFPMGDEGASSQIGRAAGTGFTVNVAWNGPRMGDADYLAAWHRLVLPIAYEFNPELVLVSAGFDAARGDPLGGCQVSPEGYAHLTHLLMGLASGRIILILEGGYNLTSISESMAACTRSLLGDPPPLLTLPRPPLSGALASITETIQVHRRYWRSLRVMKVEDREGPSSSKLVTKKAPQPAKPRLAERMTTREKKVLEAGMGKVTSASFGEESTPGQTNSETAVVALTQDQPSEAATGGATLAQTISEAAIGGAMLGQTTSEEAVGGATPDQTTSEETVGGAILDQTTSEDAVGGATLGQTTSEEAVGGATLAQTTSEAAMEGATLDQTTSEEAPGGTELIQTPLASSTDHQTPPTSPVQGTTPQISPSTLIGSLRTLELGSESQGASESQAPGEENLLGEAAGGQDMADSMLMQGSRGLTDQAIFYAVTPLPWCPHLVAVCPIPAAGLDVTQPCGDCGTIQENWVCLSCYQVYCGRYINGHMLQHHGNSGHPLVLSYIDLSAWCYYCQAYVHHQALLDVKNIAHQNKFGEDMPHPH

Histone deacetylase 1 = Histone deacetylase 1 (Homo sapiens, UniProt Q13547); experiment: Inhibition of human recombinant HDAC1 using Boc-Lys(acetyl)-AMC substrate incubated for 2 hrs by fluorescence based assay
Sequence of Histone deacetylase 1 (Q13547 whole entry): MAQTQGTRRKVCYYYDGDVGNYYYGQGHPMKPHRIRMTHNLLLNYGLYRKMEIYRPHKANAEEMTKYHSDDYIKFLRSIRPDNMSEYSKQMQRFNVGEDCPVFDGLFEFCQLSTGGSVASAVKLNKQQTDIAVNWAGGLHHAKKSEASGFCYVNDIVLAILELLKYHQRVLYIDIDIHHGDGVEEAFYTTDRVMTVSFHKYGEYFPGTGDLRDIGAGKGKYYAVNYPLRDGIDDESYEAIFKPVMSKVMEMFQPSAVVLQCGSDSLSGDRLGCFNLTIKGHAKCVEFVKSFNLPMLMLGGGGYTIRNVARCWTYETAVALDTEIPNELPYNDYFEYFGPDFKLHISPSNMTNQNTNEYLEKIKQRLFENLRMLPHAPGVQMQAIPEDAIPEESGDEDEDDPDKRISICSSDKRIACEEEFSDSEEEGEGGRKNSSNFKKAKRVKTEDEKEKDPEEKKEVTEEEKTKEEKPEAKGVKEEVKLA

Histone deacetylase 3 = Histone deacetylase 3 (Homo sapiens, UniProt O15379); experiment: Inhibition of human recombinant HDAC3 using Boc-Lys(acetyl)-AMC substrate incubated for 2 hrs by fluorescence based assay
Sequence of Histone deacetylase 3 (O15379 whole entry): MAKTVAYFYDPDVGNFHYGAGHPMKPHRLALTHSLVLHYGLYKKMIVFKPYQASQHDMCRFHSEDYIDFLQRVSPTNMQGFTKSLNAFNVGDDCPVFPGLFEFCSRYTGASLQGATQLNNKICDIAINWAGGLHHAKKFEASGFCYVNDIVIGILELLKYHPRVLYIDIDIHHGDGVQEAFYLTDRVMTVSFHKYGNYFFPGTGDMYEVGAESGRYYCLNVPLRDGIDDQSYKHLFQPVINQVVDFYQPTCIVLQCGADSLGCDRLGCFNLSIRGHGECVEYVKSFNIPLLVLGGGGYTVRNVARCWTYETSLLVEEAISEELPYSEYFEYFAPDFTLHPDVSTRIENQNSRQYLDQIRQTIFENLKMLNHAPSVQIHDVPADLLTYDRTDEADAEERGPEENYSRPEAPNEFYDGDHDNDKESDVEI

Histone deacetylase 2 = Histone deacetylase 2 (Homo sapiens, UniProt Q92769); experiment: Inhibition of human recombinant HDAC2 using Boc-Lys(acetyl)-AMC substrate incubated for 2 hrs by fluorescence based assay
Sequence of Histone deacetylase 2 (Q92769 whole entry): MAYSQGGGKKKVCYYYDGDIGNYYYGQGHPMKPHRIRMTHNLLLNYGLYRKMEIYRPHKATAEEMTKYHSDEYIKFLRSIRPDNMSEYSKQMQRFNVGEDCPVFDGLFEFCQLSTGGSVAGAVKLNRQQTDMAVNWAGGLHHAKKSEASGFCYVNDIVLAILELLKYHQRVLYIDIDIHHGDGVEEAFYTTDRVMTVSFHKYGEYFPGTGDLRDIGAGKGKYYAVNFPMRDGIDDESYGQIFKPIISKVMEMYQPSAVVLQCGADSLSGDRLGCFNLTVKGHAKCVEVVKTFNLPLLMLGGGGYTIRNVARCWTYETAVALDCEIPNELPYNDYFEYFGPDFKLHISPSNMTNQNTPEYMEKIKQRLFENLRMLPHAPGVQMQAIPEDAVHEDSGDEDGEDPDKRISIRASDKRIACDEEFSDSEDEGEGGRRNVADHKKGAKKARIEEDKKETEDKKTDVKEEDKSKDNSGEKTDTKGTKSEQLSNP

MV4-11 = experiment: cells; settings: Homo sapiens, MV4-11, 48 h
Description: Antiproliferative activity against human MV4-11 AML cells assessed as cell viability measured after 48 hrs by multiplate reader method

Compound | IC50 [1] [µM] | IC50 (Histone deacetylase 1) [nM] | IC50 (Histone deacetylase 3) [nM] | IC50 (Histone deacetylase 2) [nM] | IC50 (MV4-11) [nM]
CCCNNC(=O)c1ccc(CNC(=O)c2nc3ccccc3s2)cc1 | > 10 | 9.73 | 1.31 | 42 | 43.6
CCCNNC(=O)c1ccc(CNC(=O)c2cc3cc(O)ccc3o2)cc1 | > 10 | 3.91 | 0.51 | 16.1 | 40
CCCNNC(=O)c1ccc(CNC(=O)c2cc3cc(F)ccc3o2)cc1 | > 10 | 8.22 | 0.83 | 27.9 | 56.5
CCCNNC(=O)c1ccc(CNC(=O)c2cc3cc(OC)ccc3o2)cc1 | > 10 | 7.4 | 0.28 | 26.1 | 52.1
CCCNNC(=O)c1ccc(CNC(=O)c2cnc3ccccc3c2)cc1 | > 10 | 13.7 | 1.79 | 59.6 | 71

Now from value to compound:

IC50 [1] [µM] | IC50 (Histone deacetylase 1) [nM] | IC50 (Histone deacetylase 3) [nM] | IC50 (Histone deacetylase 2) [nM] | IC50 (MV4-11) [nM] | Compound
> 10 | – | – | – | – | CCCNNC(=O)c1ccc(CNC(=O)c2cc3ccccc3s2)cc1
> 10 | 58.3 | 1.31 | 186 | 66.5 | CCCNNC(=O)c1ccc(CNC(=O)c2cc3cc(Br)ccc3[nH]2)cc1
> 10 | 20.8 | 1.55 | 30.1 | 74 | CCCNNC(=O)c1ccc(CNC(=O)c2ccc3ccncc3c2)cc1
> 10 | 12.9 | 1.61 | 52.7 | 91.2 | CCCNNC(=O)c1ccc(CNC(=O)c2cc3cc(F)ccc3[nH]2)cc1
> 10 | 7.98 | 0.89 | 30.5 | 43.6 | CCCNNC(=O)c1ccc(CNC(=O)c2ccc3ccccc3c2)cc1
> 10 | 7.85 | 0.62 | 23.7 | 159 | CCCNNC(=O)c1ccc(CNC(=O)c2cc3cc(Br)ccc3o2)cc1

— ChEMBL document CHEMBL5042504 (J Med Chem, 2022)
